Reference: PubChem BioAssay (NCI)
Several values for one entry are separate records, joined by “and”; a condition that tells them apart may be missing. Equal entries are not always repeated.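 1) Cells in 96-well plates. 2) Compound, 48 h, 5 concentrations. 3) Linear interpolation between surrounding doses. 4) Unreached endpoint = highest concentration. GI50 = concentration required for 50% inhibition of growth. Definition used: TGI = concentration required for complete inhibition of growth.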 Where a SMILES comes first, the peptide text is derived from it. [ ]: non-standard residue; d: D form. The star is where a group is joined. NMeF = CN[CH](Cc1ccccc1)C(=O)O; NMeV = CN[CH](C(=O)O)C(C)C; Boc = CC(C)(C)OC(=O)*; OBn = c1ccc(CO*)cc1

Tests used:
Test in all cases: NCI tumour cell line growth inhibition, 48 h
M19-MEL melanoma = test system: M19-MEL melanoma
LXFL 529 NSCLC = test system: LXFL 529 NSCLC
DLD-1 colon = test system: DLD-1 colon
SNB-78 CNS = test system: SNB-78 CNS
HOP-18 NSCLC = test system: HOP-18 NSCLC
RXF-631 renal = test system: RXF-631 renal
MDA-N = test system: MDA-N
XF 498 CNS = test system: XF 498 CNS
KM20L2 colon = test system: KM20L2 colon
P388 leukemia = test system: P388 leukemia
P388/ADR leukemia = test system: P388/ADR leukemia
SN12K1 renal = test system: SN12K1 renal

SMILES	TGI (M19-MEL melanoma)	TGI (LXFL 529 NSCLC)	TGI (DLD-1 colon)	TGI (SNB-78 CNS)	TGI (HOP-18 NSCLC)	TGI (RXF-631 renal)	TGI (XF 498 CNS)	TGI (KM20L2 colon)	also measured
COc1cc2c(c3oc(-c4ccc5c(c4)OCO5)c(O)c(=O)c13)CCC(C)(C)O2	> 100 µM	> 100 µM	> 100 µM	> 100 µM	> 100 µM	> 100 µM	–	–	–
CC1OC(OC2C(OC3C[C@@]4(C)C(C[C@H](O)[C@H]5[C@H](C6(C)CCC(C(C)(C)O)O6)CCC54C)[C@]4(C)CC[C@@H](O)C(C)(C)C34)OC(CO)C(O)C2O)C(O)C(O)C1O (some centres undefined) (tested in a mixture with another compound)	–	–	–	–	–	–	–	–	TGI (MDA-N): > 100 µM
CC1(C)CCc2cc3c(cc2O1)OC(C)(C)C1c2c(ccc4c2CCC(C)(C)O4)OC31 (centres undefined)	> 100 µM	> 100 µM	> 100 µM	> 100 µM	–	–	> 100 µM	–	–
NNC(=O)CC(=O)Nc1ccccc1F	> 100 µM	> 100 µM	> 100 µM	> 100 µM	> 100 µM	> 100 µM	–	> 100 µM	–
CCOC(=O)c1c(-c2[nH]c(C(=O)OCc3ccccc3)c(C)c2C(=O)OCC)[nH]c(C(=O)OCc2ccccc2)c1C	> 100 µM	> 100 µM	> 100 µM	> 100 µM	> 100 µM	–	–	> 100 µM	–
CC(C)C(/C=C/c1ccccc1)=N\NC(=O)N/N=C(/C=C/c1ccccc1)C(C)C	76.9 µM	75.3 µM	> 100 µM	> 100 µM	–	–	77.4 µM	93.6 µM	–
COc1cc(C2[C@H]3C(=O)N(c4ccc(Cc5ccc(N6C(=O)[C@@H]7ON(c8ccccc8)C(c8cc(OC)c(OC)c(OC)c8)[C@@H]7C6=O)cc5)cc4)C(=O)[C@H]3ON2c2ccccc2)cc(OC)c1OC (some centres undefined)	> 100 µM	–	> 100 µM	> 100 µM	> 100 µM	> 100 µM	–	> 100 µM	–
CC[C@](O)(C(=O)O)c1cc2n(c(=O)c1CO)Cc1cc3ccccc3nc1-2	0.547 µM	–	30 µM	–	4.88 µM	1.04 µM	4.41 µM and 0.793 µM	3.96 µM	TGI (MDA-N): 0.605 µM; TGI (P388 leukemia): 0.294 µM; GI50 (XF 498 CNS): 0.614 µM; TGI (P388/ADR leukemia): 25.6 µM; GI50 (DLD-1 colon): 0.311 µM and 0.337 µM; GI50 (SNB-78 CNS): 0.242 µM and 0.135 µM; TGI (SN12K1 renal): 2.73 µM; GI50 (KM20L2 colon): 0.209 µM
COc1cc(C)c(C(=O)/C=C/c2cc(OC)c(O)c(OC)c2)cc1O	54 µM	40.3 µM	35.1 µM	> 100 µM	–	59.8 µM	30.7 µM	57.6 µM	–
Cc1cn(C2C=CC(=O)C(C)O2)c(=O)[nH]c1=O (centres undefined)	30.1 µM	28.1 µM	29.7 µM	35.4 µM	28.5 µM	28.5 µM	26.4 µM	30.2 µM	–
COc1cc2ccc(CC#N)cc2cc1OC	> 100 µM	> 100 µM	> 100 µM	> 100 µM	–	> 100 µM	> 100 µM	> 100 µM	–
O=C1C[C@@H](c2ccccc2)NCCCCN(O)CCCN1	–	–	–	–	–	–	–	–	TGI (MDA-N): > 100 µM
COc1ccc2oc(-c3ccncc3)cc(=O)c2c1	–	> 100 µM	> 100 µM	–	–	> 100 µM	> 100 µM	–	–
CC(C)O/C=C1\C(=O)C2(SCCS2)[C@H]2CCCC[C@@H]12	> 100 µM	> 100 µM	> 100 µM	> 100 µM	> 100 µM	> 100 µM	–	> 100 µM	–
OC(COc1ccc(Cl)cc1Cl)CN1CCCC1 (centres undefined)	–	–	–	–	–	–	–	–	TGI (MDA-N): > 100 µM
CSC(=S)N(C)NC(=O)c1cccc(C(=O)NN(C)C(=S)SC)n1	> 100 µM	> 100 µM	> 100 µM	> 100 µM	> 100 µM	–	–	> 100 µM	–
CNC1=C(C)C(=O)C(C)=C(C(C)(C)CC(=O)n2cc(F)c(=O)[nH]c2=O)C1=O	> 100 µM	> 100 µM	> 100 µM	> 100 µM	> 100 µM	> 100 µM	> 100 µM	> 100 µM	–
CN(C)c1nc(N(C)C)nc(N(C)CN(C)c2nc(N(C)C)nc(N(C)C)n2)n1	> 100 µM	> 100 µM	> 100 µM	> 100 µM	> 100 µM	–	–	> 100 µM	–
COc1ccc(S(=O)(=O)O)cc1NS(=O)(=O)c1ccc(C)cc1	–	–	–	–	–	–	–	–	TGI (MDA-N): > 100 µM
COc1cc(NCC(C#N)C#N)ccc1N=Nc1ccc([N+](=O)[O-])cc1	> 100 µM	> 100 µM	> 100 µM	> 100 µM	> 100 µM	> 100 µM	–	> 100 µM	–

SMILES	TGI (M19-MEL melanoma)	TGI (LXFL 529 NSCLC)	TGI (DLD-1 colon)	TGI (SNB-78 CNS)	TGI (HOP-18 NSCLC)	TGI (RXF-631 renal)	TGI (XF 498 CNS)	TGI (KM20L2 colon)	also measured
CC1SC2=NC3=C(c4ccccc4C3=O)C(c3ccc(Br)cc3)N2C1=O (centres undefined)	> 100 µM	> 100 µM	> 100 µM	–	–	–	> 100 µM	> 100 µM	–
O=C1c2cnccc2Cc2cccc3c2N1c1ccccc1S3	86.7 µM	> 100 µM	> 100 µM	–	–	> 100 µM	32.6 µM	34.8 µM	–
O=C1C2Cc3ccccc3CN2C(=O)N1CN1CCN(CN2C(=O)C3Cc4ccccc4CN3C2=O)CC1 (centres undefined)	> 100 µM	–	> 100 µM	> 100 µM	> 100 µM	> 100 µM	–	> 100 µM	–
OCCc1cnco1	> 100 µM	> 100 µM	> 100 µM	> 100 µM	> 100 µM	–	–	> 100 µM	–
CCC[CH2][Sn]1([CH2]CCC)[O]C(=O)C[S]1	7.75 µM	1.55 µM	2.78 µM	4.14 µM	2.91 µM	5.05 µM	2.74 µM	15.9 µM	GI50 (M19-MEL melanoma): 1.9 µM; GI50 (LXFL 529 NSCLC): 0.312 µM; GI50 (XF 498 CNS): 1.41 µM; GI50 (DLD-1 colon): 1.29 µM; GI50 (SNB-78 CNS): 1.17 µM; GI50 (HOP-18 NSCLC): 1.57 µM; GI50 (RXF-631 renal): 0.85 µM; GI50 (KM20L2 colon): 4.06 µM
N#Cc1cc2cc3c4c(c2oc1=O)CCCN4CCC3	–	–	–	–	–	–	–	–	TGI (MDA-N): > 100 µM
COc1ccc(CNc2nc3ccccc3nc2-c2cccs2)cc1OC	> 100 µM	> 100 µM	–	> 100 µM	> 100 µM	> 100 µM	59.6 µM	> 100 µM	–
CC(C)C(NC(=O)OC(C)(C)C)C(=O)N(C)C(Cc1ccccc1)C(=O)N(C)C(C(=O)N(C)C(C(=O)OCc1ccccc1)C(C)C)C(C)C (centres undefined) (Boc-V[NMeF][NMeV][NMeV]-OBn; configuration not given here)	> 100 µM	> 100 µM	–	–	–	–	82.4 µM	> 100 µM	–
CCOC(=O)CNC(SC)=C(C#N)C#N	> 100 µM	> 100 µM	> 100 µM	> 100 µM	–	–	> 100 µM	> 100 µM	–
N/C(=N\OC(=O)NC(Cl)=C(Cl)Cl)c1cc(C(F)(F)F)cc(C(F)(F)F)c1	–	–	–	–	–	–	–	–	TGI (MDA-N): 59.5 µM
O=C1c2c(c3c4ccccc4n4c3c3c2c2ccccc2n3C/C=C\C4)C(=O)N1Cc1ccccc1	> 100 µM	> 100 µM	> 100 µM	–	> 100 µM	–	85.9 µM	> 100 µM	–
Cn1c(=O)c(C(c2ccccc2)c2c(O)c3ccccc3n(C)c2=O)c(O)c2ccccc21	> 100 µM	> 100 µM	> 100 µM	> 100 µM	> 100 µM	> 100 µM	> 100 µM	> 100 µM	–
CSc1nc2c(nc(N)n2C2OCC(O)C(O)C2O)c(=O)[nH]1 (centres undefined)	> 100 µM	> 100 µM	> 100 µM	> 100 µM	> 100 µM	> 100 µM	> 100 µM	> 100 µM	–
C#CCOCn1cnc2ncnc(Cl)c21	> 100 µM	> 100 µM	> 100 µM	> 100 µM	> 100 µM	> 100 µM	> 100 µM	> 100 µM	–
O=C(N/C(=C\c1ccc([N+](=O)[O-])cc1)c1nc2[nH]c(=S)[nH]c(=O)c2[nH]1)c1ccccc1	> 100 µM	> 100 µM	> 100 µM	> 100 µM	–	–	> 100 µM	> 100 µM	–
O=C1Cc2ccccc2N1/N=C\c1ccc(O)cc1	> 100 µM	–	–	> 100 µM	> 100 µM	> 100 µM	> 100 µM	> 100 µM	–
C(=C1\CCC/C(=C/c2ccccc2)C1=NNc1ccccc1)/c1ccccc1	> 100 µM	> 100 µM	> 100 µM	> 100 µM	> 100 µM	> 100 µM	–	> 100 µM	–
Cn1c2ccccc2c2cc(-c3ccccc3)c3c(c21)C(=O)C=CC3=O	46.6 µM	18.6 µM	27.7 µM	> 64.8 µM	–	> 100 µM	32.1 µM	–	TGI (MDA-N): 41.8 µM
O=C(CCCn1ccnc1[N+](=O)[O-])NCCn1cnc([N+](=O)[O-])c1	–	–	–	–	–	–	–	–	TGI (MDA-N): > 100 µM
